Tests used:
Staphylococcus aureus [1] = test: Antibacterial activity against Staphylococcus aureus at 100 ug/ml by disc diffusion method; assay type: functional; details: read-out: DIZ
Pseudomonas aeruginosa [2] = test: Antibacterial activity against Pseudomonas aeruginosa at 100 ug/ml by disc diffusion method; assay type: functional; details: read-out: DIZ
Pseudomonas aeruginosa [3] = test: Antibacterial activity against Pseudomonas aeruginosa at 1 ug/ml by disc diffusion method; assay type: functional; details: read-out: DIZ
Staphylococcus aureus [4] = test: Antibacterial activity against Staphylococcus aureus at 1 ug/ml by disc diffusion method; assay type: functional; details: read-out: DIZ
Staphylococcus aureus [5] = test: Antibacterial activity against Staphylococcus aureus at 50 ug/ml by disc diffusion method; assay type: functional; details: read-out: DIZ
Escherichia coli [6] = test: Antibacterial activity against Escherichia coli at 1 ug/ml by disc diffusion method; assay type: functional; details: read-out: DIZ
Proteus sp. [7] = test: Antibacterial activity against Proteus sp. at 10 ug/ml by disc diffusion method; assay type: functional; details: Proteus sp. (in: enterobacteria); read-out: DIZ
Staphylococcus aureus [8] = test: Antibacterial activity against Staphylococcus aureus at 10 ug/ml by disc diffusion method; assay type: functional; details: read-out: DIZ
Proteus sp. [9] = test: Antibacterial activity against Proteus sp. at 1 ug/ml by disc diffusion method; assay type: functional; details: Proteus sp. (in: enterobacteria); read-out: DIZ
Escherichia coli [10] = test: Antibacterial activity against Escherichia coli at 10 ug/ml by disc diffusion method; assay type: functional; details: read-out: DIZ
Escherichia coli [11] = test: Antibacterial activity against Escherichia coli at 50 ug/ml by disc diffusion method; assay type: functional; details: read-out: DIZ
Proteus sp. [12] = test: Antibacterial activity against Proteus sp. at 50 ug/ml by disc diffusion method; assay type: functional; details: Proteus sp. (in: enterobacteria); read-out: DIZ
Proteus sp. [13] = test: Antibacterial activity against Proteus sp. at 100 ug/ml by disc diffusion method; assay type: functional; details: Proteus sp. (in: enterobacteria); read-out: DIZ
[14] = Solubility of the compound in THF; assay type: physicochemical
[15] = Solubility of the compound in dioxane; assay type: physicochemical
[16] = Solubility of the compound in ethanol; assay type: physicochemical
Pseudomonas aeruginosa [17] = test: Antibacterial activity against Pseudomonas aeruginosa at 50 ug/ml by disc diffusion method; assay type: functional; details: read-out: DIZ
Escherichia coli [18] = test: Antibacterial activity against Escherichia coli at 100 ug/ml by disc diffusion method; assay type: functional; details: read-out: DIZ
Pseudomonas aeruginosa [19] = test: Antibacterial activity against Pseudomonas aeruginosa at 10 ug/ml by disc diffusion method; assay type: functional; details: read-out: DIZ
Proteus sp. [20] = test: Antibacterial activity against Proteus sp. at 30 ug/ml by disc diffusion method; assay type: functional; details: Proteus sp. (in: enterobacteria); read-out: DIZ
Escherichia coli [21] = test: Antibacterial activity against Escherichia coli at 5 ug/ml by disc diffusion method; details: read-out: DIZ
Staphylococcus aureus [22] = test: Antibacterial activity against Staphylococcus aureus at 5 ug/ml by disc diffusion method; details: read-out: DIZ
Pseudomonas aeruginosa [23] = test: Antibacterial activity against Pseudomonas aeruginosa at 5 ug/ml by disc diffusion method; details: read-out: DIZ
Staphylococcus aureus [24] = test: Antibacterial activity against Staphylococcus aureus at 15 ug/ml by disc diffusion method; assay type: functional; details: read-out: DIZ
Escherichia coli [25] = test: Antibacterial activity against Escherichia coli at 15 ug/ml by disc diffusion method; assay type: functional; details: read-out: DIZ
Escherichia coli [26] = test: Antibacterial activity against Escherichia coli at 30 ug/ml by disc diffusion method; assay type: functional; details: read-out: DIZ
Pseudomonas aeruginosa [27] = test: Antibacterial activity against Pseudomonas aeruginosa at 30 ug/ml by disc diffusion method; assay type: functional; details: read-out: DIZ
Staphylococcus aureus [28] = test: Antibacterial activity against Staphylococcus aureus at 30 ug/ml by disc diffusion method; assay type: functional; details: read-out: DIZ

Row | SMILES | zone of inhibition at 100 µg/mL (Staphylococcus aureus [1]) [mm] | zone of inhibition at 100 µg/mL (Pseudomonas aeruginosa [2]) [mm] | zone of inhibition at 1 µg/mL (Staphylococcus aureus [4]) [mm] | zone of inhibition at 50 µg/mL (Staphylococcus aureus [5]) [mm] | zone of inhibition at 1 µg/mL (Escherichia coli [6]) [mm] | zone of inhibition at 10 µg/mL (Proteus sp. [7]) [mm] | zone of inhibition at 10 µg/mL (Staphylococcus aureus [8]) [mm] | zone of inhibition at 10 µg/mL (Escherichia coli [10]) [mm] | zone of inhibition at 50 µg/mL (Escherichia coli [11]) [mm] | zone of inhibition at 50 µg/mL (Proteus sp. [12]) [mm] | zone of inhibition at 100 µg/mL (Proteus sp. [13]) [mm] | solubility [14] | solubility [15] | solubility [16] | zone of inhibition at 50 µg/mL (Pseudomonas aeruginosa [17]) [mm] | zone of inhibition at 100 µg/mL (Escherichia coli [18]) [mm] | zone of inhibition at 10 µg/mL (Pseudomonas aeruginosa [19]) [mm] | further results
1 | COc1cccc(C2C(Cl)C(=O)N2c2ccc(S(=O)(=O)Nc3cc(C)on3)cc2)c1O (configuration not stated) | 16 | 13 | 7 | 11 | 7 | 10 | 9 | 9 | 13 | 12 | 12 | soluble | soluble | soluble | 11 | 14 | 9 | zone of inhibition at 1 µg/mL (Pseudomonas aeruginosa [3]): 6 mm; zone of inhibition at 1 µg/mL (Proteus sp. [9]): 6 mm
2 | COc1cccc(/C=N/c2ccc(S(=O)(=O)Nc3cc(C)on3)cc2)c1O | 12 | 15 | 6 | 10 | 6 | 11 | 8 | 8 | 11 | 14 | 15 | soluble | soluble | soluble | 11 | 14 | 10 | zone of inhibition at 1 µg/mL (Pseudomonas aeruginosa [3]): 6 mm; zone of inhibition at 1 µg/mL (Proteus sp. [9]): 6 mm
3 | COc1cccc(/C=N/c2ccc(S(=O)(=O)Nc3nccs3)cc2)c1O | 14 | 13 | 6 | 12 | 6 | 7 | 9 | 9 | 12 | 8 | 9 | soluble | soluble | soluble | 10 | 15 | 8 | 
4 | COc1cccc(C2C(Cl)C(=O)N2c2ccc(S(=O)(=O)Nc3nccs3)cc2)c1O (configuration not stated) | 16 | 11 | 6 | 12 | 6 | 7 | 8 | 8 | 12 | 8 | 9 | soluble | soluble | soluble | 9 | 13 | 6 | 
5 | C[C@H]1[C@H](NC(=O)/C(=N\OC(C)(C)C(=O)O)c2csc(N)n2)C(=O)N1S(=O)(=O)O [AZTREONAM] |  |  |  |  |  |  |  |  |  |  |  |  |  |  |  |  |  | zone of inhibition at 30 µg/mL (Proteus sp. [20]): 24 mm
6 | O=C(O)c1cn(C2CC2)c2cc(N3CCNCC3)c(F)cc2c1=O [CIPROFLOXACIN] |  |  |  |  |  |  |  |  |  |  |  |  |  |  |  |  |  | zone of inhibition at 5 µg/mL (Escherichia coli [21]): 28 mm; zone of inhibition at 5 µg/mL (Staphylococcus aureus [22]): 20 mm; zone of inhibition at 5 µg/mL (Pseudomonas aeruginosa [23]): 17 mm
7 | CC[C@H]1OC(=O)[C@H](C)[C@@H](O[C@H]2C[C@@](C)(OC)[C@@H](O)[C@H](C)O2)[C@H](C)[C@@H](O[C@@H]2O[C@H](C)C[C@H](N(C)C)[C@H]2O)[C@](C)(OC)C[C@@H](C)C(=O)[C@H](C)[C@@H](O)[C@]1(C)O [CLARITHROMYCIN] |  |  |  |  |  |  |  |  |  |  |  |  |  |  |  |  |  | zone of inhibition at 15 µg/mL (Staphylococcus aureus [24]): 23 mm; zone of inhibition at 15 µg/mL (Escherichia coli [25]): 16 mm
8 | CO[C@@H]1[C@@H](OC(N)=O)[C@@H](O)[C@H](Oc2ccc3c(O)c(NC(=O)c4ccc(O)c(CC=C(C)C)c4)c(=O)oc3c2C)OC1(C)C [NOVOBIOCIN] |  |  |  |  |  |  |  |  |  |  |  |  |  |  |  |  |  | zone of inhibition at 30 µg/mL (Proteus sp. [20]): 20 mm; zone of inhibition at 30 µg/mL (Escherichia coli [26]): 7 mm; zone of inhibition at 30 µg/mL (Pseudomonas aeruginosa [27]): 14 mm; zone of inhibition at 30 µg/mL (Staphylococcus aureus [28]): 24 mm
9 | Cc1cc(NS(=O)(=O)c2ccc(N)cc2)no1 [SULFAMETHOXAZOLE] | 9 | 10 |  | 8 |  | 7 | 6 | 8 | 10 | 8 | 9 |  |  |  | 8 | 12 | 7 | 
10 | Nc1ccc(S(=O)(=O)Nc2nccs2)cc1 [SULFATHIAZOLE] | 15 | 9 | 6 | 13 |  | 8 | 10 | 7 | 10 | 10 | 11 |  |  |  | 8 | 11 | 7 | 
